# According to BindingDB's records for doi:10.1021/cb400468c (Massachusetts Institute of Technology, 2013):
# How the values were obtained:
# [1] = biological target: T1, Gag-Pol polyprotein [484-582,I494L,I497V,V499I,D514N,E519D,R541K,D544E,Q553K,N572D,L573M] (Human immunodeficiency virus, UniProt Q9QBY3, D514N/D544E/E519D/I494L/I497V/L573M/N572D/Q553K/R541K/V499I); test: Inhibition Assay
# T1 construct: 484-582
# Experimental: (§1) HIV protease inhibitor activities were determined by fluorescence resonance energy transfer (FRET) method. Protease substrate, Arg-Glu-(EDANS)-Ser-Gln-Asn-Tyr-Pro-Ile-Val-Gln-Lys(DABCYL)-Arg, was labeled with the energy transfer donor (EDANS) and acceptor (DABCYL) dyes at its two ends to perform FRET. Fluorescence measurements were carried out on an EnVision plate reader (PerkinElmer).
# [2] = biological target: T2, Gag-Pol polyprotein [484-582,I494L,I497V,V499I,E519D,I534V,R541K,D544E,Q553K,A555V,L573M] (Human immunodeficiency virus, UniProt Q9QBY3, A555V/D544E/E519D/I494L/I497V/I534V/L573M/Q553K/R541K/V499I); test: Inhibition Assay
# T2 construct: 484-582
# Experimental: as §1
# [3] = biological target: T3, Gag-Pol polyprotein [484-582,I497V,V499I,E519D,G532V,I538V,R541K,D544E,Q553K,V566A,L573M] (Human immunodeficiency virus, UniProt Q9QBY3, D544E/E519D/G532V/I497V/I538V/L573M/Q553K/R541K/V499I/V566A); test: Inhibition Assay
# T3 construct: 484-582
# Experimental: as §1
# [4] = biological target: T4, Gag-Pol polyprotein [484-582,I497V,V499I,E519D,R541K,D544E,Q553K,A555V,G557S,I568V,L574M,L573M] (Human immunodeficiency virus, UniProt Q9QBY3, A555V/D544E/E519D/G557S/I497V/I568V/L573M/L574M/Q553K/R541K/V499I); test: Inhibition Assay
# T4 construct: 484-582
# Experimental: as §1
# HIV-1 protease = HIV-1 protease (Human immunodeficiency virus, UniProt O90785); test: Inhibition Assay
# Experimental: as §1
# [5] = biological target: T5, Gag-Pol polyprotein [489-892,N526H,R530K,V566I,I582L,V648I,Q690K,I723V,C750S,T788A,Q795E,T874A,V881I,P882Q] (Human immunodeficiency virus, UniProt P12497, C750S/I582L/I723V/N526H/P882Q/Q690K/Q795E/R530K/T788A/T874A/V566I/V648I/V881I); test: Drug Susceptibility Assay
# T5 construct: 489-892
# Experimental: (§2) Drug susceptibility assays were carried out by Monogram Bioscience against wild-type HIV-1 control and patient-derived strains of wild-type HIV-1 from clades A, B, and C, and two multi-drug-resistant HIV-1 variants.
# [6] = biological target: T6, Gag-Pol polyprotein [489-892] (Human immunodeficiency virus, UniProt P12497); test: Drug Susceptibility Assay
# T6 construct: 489-892
# Experimental: as §2
# [7] = biological target: HIV WT-A pol protein (wild-type clade A) (Human immunodeficiency virus 1, UniProt P12497); test: Drug Susceptibility Assay
# Experimental: as §2
# [8] = biological target: HIV WT-C pol protein (wild-type clade C) (Human immunodeficiency virus, UniProt P12497); test: Drug Susceptibility Assay
# Experimental: as §2
# MDR1 = MDR1 (Human immunodeficiency virus, UniProt P12497); test: Drug Susceptibility Assay
# Experimental: as §2
# MDRC4 = MDRC4 (Human immunodeficiency virus, UniProt P12497); test: Drug Susceptibility Assay
# Experimental: as §2
SMILES,Ki [1] [nM],Ki [2] [nM],Ki [3] [nM],Ki [4] [nM],Ki (HIV-1 protease) [nM],EC50 [5] [nM],EC50 [6] [nM],EC50 [7] [nM],EC50 [8] [nM],EC50 (MDR1) [nM],EC50 (MDRC4) [nM]
"O=C(N[C@@H](Cc1ccccc1)[C@H](O)CN(CC1CCCCC1)S(=O)(=O)c1ccc2ncsc2c1)c1cccc(O)c1 [N-[(1S,2R)-3-[(6-Benzothiazolylsulfonyl)(cyclohexylmethyl)amino]-2-hydroxy-1-(phenylmethyl)propyl]-3-hydroxy-benzamide (AF-72)]",0.383,4.82,1.33,2.75,0.129,37.9,63.7,48.6,94.6,99.1,165
"CC[C@H](C)[C@H](NC(C)=O)C(=O)N[C@@H](Cc1ccccc1)[C@H](O)CN(CC(C)C)S(=O)(=O)c1ccc(OC)cc1 [(2S,3S)-2-(Acetylamino)-N-[(1S,2R)-2-hydroxy-3-[[(4-methoxyphenyl)sulfonyl](2-methylpropyl)amino]-1-(phenylmethyl)propyl]-3-methyl-pentanamide (AF-68)]",0.049,0.144,0.819,1.03,0.146,1.6,3.5,2.4,3,15.1,15.4
CC(C)CN(C[C@@H](O)[C@H](Cc1ccccc1)NC(=O)O[C@H]1CCOC1)S(=O)(=O)c1ccc(N)cc1 [VX-478],–,–,–,–,–,1.8,3,2.6,3.7,15.6,17.5
"CC[C@H](C)CN(C[C@@H](O)[C@H](Cc1ccccc1)NC(=O)C(NC(C)=O)[C@@H](C)CC)S(=O)(=O)c1ccc2ncsc2c1 (stereo partly drawn) [(2S,3S)-2-(Acetylamino)-N-[(1S,2R)-3-[(6-benzothiazolylsulfonyl)[(2S)-2-methylbutyl]amino]-2-hydroxy-1-(phenylmethyl)propyl]-3-methyl-pentanamide (AG-23)]",0.028,0.092,0.376,0.048,0.021,1.9,2.7,2.3,3.5,7.2,8.7
"CC[C@H](C)CN(C[C@@H](O)[C@H](Cc1ccccc1)NC(=O)c1cccc(O)c1)S(=O)(=O)c1ccc(-c2ccno2)s1 [3-Hydroxy-N-[(1S,2R)-2-hydroxy-3-[[[5-(5-isoxazolyl)-2-thienyl]sulfonyl][(2S)-2-methylbutyl]amino]-1-(phenylmethyl)propyl]-benzamide (AF-71)]",2.95,30,18.2,44.8,3.33,–,–,–,–,–,–
"COc1ccc(S(=O)(=O)N(CC2CCCCC2)C[C@@H](O)[C@H](Cc2ccccc2)NC(=O)c2cccc(O)c2)cc1 [N-[(1S,2R)-3-[(Cyclohexylmethyl)[(4-methoxyphenyl)sulfonyl]amino]-2-hydroxy-1-(phenylmethyl)propyl]-3-hydroxy-benzamide (AF-77)]",0.49,3.4,2.04,2.47,0.546,22.4,47.3,38.4,65.7,86.9,105
"COc1ccc(S(=O)(=O)N(CCCc2ccccc2)C[C@@H](O)[C@H](Cc2ccccc2)NC(=O)c2cccc(O)c2)cc1 [3-Hydroxy-N-[(1S,2R)-2-hydroxy-3-[[(4-methoxyphenyl)sulfonyl](3-phenylpropyl)amino]-1-(phenylmethyl)propyl]-benzamide (AF-78)]",2.54,5.89,42.9,23.8,0.437,–,–,–,–,–,–
"O=C(N[C@@H](Cc1ccccc1)[C@H](O)CN(CCCc1ccccc1)S(=O)(=O)c1ccc2ncsc2c1)c1cccc(O)c1 [N-[(1S,2R)-3-[(6-Benzothiazolylsulfonyl)(3-phenylpropyl)amino]-2-hydroxy-1-(phenylmethyl)propyl]-3-hydroxy-benzamide (AF-69)]",2,2.27,19.2,9.96,0.07,–,–,–,–,–,–
